Laboratory results reported in patent publication US12492202B2, “Macrocyclic PAD4 inhibitors useful as immunosuppressant” (BRISTOL-MYERS SQUIBB COMPANY, priority 2020, dated 2025).

These molecules were tested against human PAD4 (hPAD4) (Homo sapiens (Human), UniProt Q9UM07) (assay: RFMS Human PAD4 Functional Assay). Conditions: rapid-fire mass spectrum (RFMS) assay; 5 nM hPAD4 enzyme, 250 μM BAEE, 30 min preincubation at 37° C.
Assay type: biochemical
Experimental: RFMS Human PAD4 Functional Assay: Compounds were solubilized in 100% DMSO to achieve a 10 mM compound concentration. Compound stock solutions were stored at RT. A series of dilutions were prepared in DMSO and mixed 8 times with 20 μL mixing volume. Final top concentration of compound in the assay is 50 μM. Final assay conditions were as follows: • Reaction volume: 26 μl • Assay buffer: 25 mM hepes, pH 7.5, 5 mM NaCl, 1 mM DTT, 0.2 mg/ml BSA, 0.01% CHAPS, 50 μM Calcium, and 5 μM TPEN • Final concentrations: 5 nM hPAD4 enzyme, 250 μM BAEE, and 0.5% DMSO • Total incubation time: 30 mins compound and enzyme preincubation at 37° C., 90 min enzyme/substrate reaction, 30 min reaction with phenyl glyoxal at 37° C. • Stop solution: 40 μl 5% TCA in ACN 0.13 μL of compound solution was added to 13 μL of 10 nM PAD4 in assay buffer. After 30 min 13 μl of 500 μM of BAEE was added in 25 mM hepes, pH 7.5, 5 mM NaCl, 1 mM DTT, 0.2 mg/ml BSA, 0.01% CHAPS, 50 μM Calcium, 5 μM TPEN was added and the reaction incubated for 90 min at 37° C. The enzymatic reaction was quenched by addition of 15 μl of 6.1N TCA, 100% Final Concentration is 20%, 35 μl of 8.5 mM phenyl glyoxal (final concentration 4 mM) is then added and the reaction is incubated for 30 min at 37° C. After 30 minutes the plates are spun down to remove all precipitate. The enzyme reaction was quenched with an equal volume of methanol containing internal standard (modified citrulline). Samples were loaded onto the Rapid Fire RF300 system (Agilent) wherein they were first sipped for 1000 ms and then directly loaded to a C18 separations cartridge using a mixture of acetonitrile containing 0.01% formic acid for 3000 ms desalting. The flow rate of the mobile phase was 1.5 ml/min. Once the samples were eluted from the cartridge, a mobile phase of acetonitrile containing 0.01% formic acid was used to move the samples into the mass spectrometer for 4000 ms at a flow rate of 1.25 ml/min/Sciex API5500 triple quadrupole mass spectrometer (Applied Biosystems) equipped with ESI was used to analyze the peptidyl citrulline and internal standard ions. MRM transition of product and internal standard were monitored at m/z 424.5 to 350.4 and m/z 293 to 247 respectively. The dwell time for each transition was set at 200 ms, and the ESI voltage was used at 5500 with a source temperature of 400° C. Extracted ion peaks for each transition were integrated using the Rapid Fire Integrator software. Peak area of analyte was normalized with internal standard).

Sequence of human PAD4 (hPAD4) (Q9UM07 whole entry): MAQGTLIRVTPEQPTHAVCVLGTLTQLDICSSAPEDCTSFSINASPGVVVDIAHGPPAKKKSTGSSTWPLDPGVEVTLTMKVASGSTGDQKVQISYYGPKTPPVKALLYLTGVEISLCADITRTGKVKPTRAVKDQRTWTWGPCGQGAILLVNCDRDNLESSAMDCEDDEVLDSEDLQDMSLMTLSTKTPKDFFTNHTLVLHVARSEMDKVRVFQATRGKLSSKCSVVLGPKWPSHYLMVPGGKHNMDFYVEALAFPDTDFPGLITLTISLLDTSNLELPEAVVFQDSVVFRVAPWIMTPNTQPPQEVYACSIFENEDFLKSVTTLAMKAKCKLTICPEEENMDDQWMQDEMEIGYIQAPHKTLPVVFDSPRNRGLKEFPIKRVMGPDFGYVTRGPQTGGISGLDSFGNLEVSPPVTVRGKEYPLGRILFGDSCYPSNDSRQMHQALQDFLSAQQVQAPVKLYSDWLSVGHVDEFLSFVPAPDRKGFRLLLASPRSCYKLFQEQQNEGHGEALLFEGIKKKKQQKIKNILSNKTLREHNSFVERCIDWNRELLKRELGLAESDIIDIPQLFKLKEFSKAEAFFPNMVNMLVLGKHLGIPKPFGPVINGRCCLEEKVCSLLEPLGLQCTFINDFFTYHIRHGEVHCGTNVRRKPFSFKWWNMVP

Compound	IC50 [nM]
COc1cc(C(=O)N2CC3CCC2[C@@H]3N)cc2nc3n(c12)Cc1ccn(n1)-c1ccccc1OCCCn1c-3cc2ccccc21 (stereo partly drawn) [Example 19, ((7R)-7-amino-2-azabicyclo[2.2.1]heptan-2-yl)((E)-2^7-methoxy-1^1H,2^1H,4^1H-6-oxa-2(2,1)-benzo[d]imidazola-1(2,1)-indola-4(3,1)-pyrazola-5(1,2)-benzenacyclononaphane-2^5-yl)methanone]	5
COc1cc(C(=O)N2C[C@H](N)C[C@@H](F)C2)cc2nc3n(c12)Cc1ccn(n1)-c1ccccc1OCCCn1c-3cc2ccccc21 [Example 20, ((3R,5R)-3-amino-5-fluoropiperidin-1-yl)((E)-2^7-methoxy-1^1H,2^1H,4^1H-6-oxa-2(2,1)-benzo[d]imidazola-l(2,1)-indola-4(3,1)-pyrazola-5(1,2)-benzenacyclononaphane-2^5-yl)methanone]	13
COc1cc(C(=O)N2C[C@H](N)C[C@@H](F)C2)cc2nc3n(c12)Cc1cccc(c1)-c1ccccc1CCCCn1c-3cc2ccccc21 [Example 21, ((3R,5R)-3-amino-5-fluoropiperidin-1l-yl)(2^7-methoxy-1^1IH,2^1H-2(2,1)-benzo[d]imidazola-1(2,1)-indola-4(1,3),5(1,2)-dibenzenacyclononaphane-2^5-yl)methanone]	191
COc1cc(C(=O)N2CC3CCC2[C@@H]3N)cc2nc3n(c12)Cc1cccc(c1)-c1ccccc1CCCCn1c-3cc2ccccc21 (stereo partly drawn) [Example 22, ((1R,4R,7R)-7-amino-2-azabicyclo[2.2.1]heptan-2-yl)(2^7-methoxy-1^1H,2^1H-2(2,1)-benzo[d]imidazola-1(2,1)-indola-4(1,3),5(1,2)-dibenzenacyclononaphane-2^5-yl)methanone]	53
COc1cc(C(=O)N2C[C@H](N)C[C@@H](F)C2)cc2nc3n(c12)Cc1cccc(c1)-c1ccccc1CCCCn1c-3cc2cccnc21 [Example 23, ((3R,5R)-3-amino-5-fluoropiperidin-1-yl)(2^7-methoxy-1^1H,2^1H,2(2,1)-dipyrrolo[2,3-b]pyridina-4(1,3),5(1,2)-dibenzenacyclononaphane-2^5-yl)methanone]	109
COc1cc(C(=O)N2C[C@H](N)C[C@@H](F)C2)cc2nc3n(c12)Cc1cc(F)cc(c1)-c1ccccc1CCCCn1c-3cc2cccnc21 [Example 25, ((3R,5R)-3-amino-5-fluoropiperidin-1-yl)(4^5-fluoro-2^7-methoxy-1^1H,2^1H-1,2(2,1)-dipyrrolo[2,3-b]pyridina-4(1,3),5(1,2)-dibenzenacyclononaphane-2^5-yl)methanone]	31
COc1cc(C(=O)N2C[C@H](N)C[C@@H](F)C2)cc2nc3n(c12)Cc1cc(C#N)cc(c1)-c1ccccc1CCCCn1c-3cc2cccnc21 [Example 26, 2^5-((3R,5R)-3-amino-5-fluoropiperidine-1 carbonyl)-2^7-methoxy-1^1H,2^1H-1,2(2,1)-dipyrrolo[2,3-b]pyridina-4(1,3),5(1,2)-dibenzenacyclononaphane-4^5-carbonitrile]	21
COc1cc(C(=O)N2CC3CCC2[C@@H]3N)cc2nc3n(c12)Cc1cc(C#N)cc(c1)-c1ccccc1CCCCn1c-3cc2cccnc21 (stereo partly drawn) [Example 27, 2^5-((1R,4R,7R)-7-amino-2-azabicyclo[2.2.1]heptane-2-carbonyl)-2^7-methoxy-1^1H,2^1H-1,2(2,1)-dipyrrolo[2,3-b]pyridina-4(1,3),5(1,2)-dibenzenacyclononaphane-4^5-carbonitrile]	49
COc1cc(C(=O)N2C[C@H](N)C[C@@H](F)C2)cc2nc3n(c12)Cc1cc(C(N)=O)cc(c1)-c1ccccc1CCCCn1c-3cc2cccnc21 [Example 28, 2^5-((3R,5R)-3-amino-5-fluoropiperidine-1-carbonyl)-2^7-methoxy-1^1H,2^1H-1,2(2,1)-dipyrrolo[2,3-b]pyridina-4(1,3),5(1,2)-dibenzenacyclononaphane-4^5-carboxamide]	62
COc1cc(C(=O)N2CC3CCC2[C@@H]3N)cc2nc3n(c12)Cc1cc(C(N)=O)cc(c1)-c1ccccc1CCCCn1c-3cc2cccnc21 (stereo partly drawn) [Example 29, 2^5-((1R,4R,7R)-7-amino-2-azabicyclo[2.2.1]heptane-2-carbonyl)-2^7-methoxy-1^1H,2^1H-1,2(2,1)-dipyrrolo[2,3-b]pyridina-4(1,3),5(1,2)-dibenzenacyclononaphane-4^5-carboxamide]	59
COc1cc(C(=O)N2C[C@H](N)C[C@@H](F)C2)cc2nc3n(c12)Cc1cncc(c1)-c1ccccc1CCCCn1c-3cc2cccnc21 [Example 30, ((3R,5R)-3-amino-5-fluoropiperidin-1-yl)(2^7-methoxy-1^1H, 2^1H-1,2(2,1)-dipyrrolo[2,3-b]pyridina-4(3,5)-pyridina-5(1,2)-benzenacyclononaphane-2^5-yl)methanone]	4
COc1cc(C(=O)N2CC3CCC2[C@@H]3N)cc2nc3n(c12)Cc1cncc(c1)-c1ccccc1CCCCn1c-3cc2cccnc21 (stereo partly drawn) [Example 31, ((1R,4R,7R)-7-amino-2-azabicyclo[2.2.1]heptan-2-yl)(2^7-methoxy-1^1H,2^1H-1,2(2,1)-dipyrrolo[2,3-b]pyridina-4(3,5)-pyridina-5(1,2)-benzenacyclononaphane-2^5-yl)methanone]	10
COc1cc(C(=O)N2CC3CCC2[C@@H]3N)cc2nc3n(c12)Cc1cc(ccn1)-c1ccccc1CCCCn1c-3cc2cccnc21 (stereo partly drawn) [Example 32, ((1R,4R,7R)-7-amino-2-azabicyclo[2.2.1]heptan-2-yl)(2^7-methoxy-1^1H,2^1H-1,2(2,1)-dipyrrolo[2,3-b]pyridina-4(2,4)-pyridina-5(1,2)-benzenacyclononaphane-2^5-yl)methanone]	112
COc1cc(C(=O)N2C[C@H](N)C[C@@H](F)C2)cc2nc3n(c12)Cc1cccc(c1)-c1ccccc1OCCCn1c-3cc2cccnc21 [Example 33, ((3R,5R)-3-amino-5-fluoropiperidin-1-yl)(2^7-methoxy-1^1H,2^1H-6-oxa-1,2(2,1)-dipyrrolo[2,3-b]pyridina-4(1,3),5(1,2)-dibenzenacyclononaphane-2^5-yl)methanone]	120
COc1cc(C(=O)N2CC3CCC2[C@@H]3N)cc2nc3n(c12)Cc1cccc(c1)-c1ccccc1OCCCn1c-3cc2cccnc21 (stereo partly drawn) [Example 34, ((1R,4R,7R)-7-amino-2-azabicyclo[2.2.1]heptan-2-yl)(2^7-methoxy-1^1H,2^1H-6-oxa-1,2(2,1)-dipyrrolo[2,3-b]pyridina-4(1,3),5(1,2)-dibenzenacyclononaphane-2^5-yl)methanone]	30
COc1cc(C(=O)N2C[C@H](N)C[C@@H](F)C2)cc2nc3n(c12)Cc1cncc(c1)-c1ccccc1OCCCn1c-3cc2cccnc21 [Example 35, ((3R,5R)-3-amino-5-fluoropiperidin-1-yl)(2^7-methoxy-1^1H,2^1H-6-oxa-1,2(2,1)-dipyrrolo[2,3-b]pyridina-4(3,5)-pyridina-5(1,2)-benzenacyclononaphane-2^5-yl)methanone]	14
COc1cc(C(=O)N2CC3CCC2[C@@H]3N)cc2nc3n(c12)Cc1cncc(c1)-c1ccccc1OCCCn1c-3cc2cccnc21 (stereo partly drawn) [Example 36, ((1R,4R,7R)-7-amino-2-azabicyclo[2.2.1]heptan-2-yl)(2^7-methoxy-1^1H,2^1H-6-oxa-1,2(2,1)-dipyrrolo[2,3-b]pyridina-4(3,5)-pyridina-5(1,2)-benzenacyclononaphane-2^5-yl)methanone]	7
COc1cc(C(=O)N2C[C@H]3CC[C@@H]2[C@@H]3N)cc2nc3n(c12)CCC(=O)Nc1ccccc1OCCCn1c-3cc2cccnc21 [Example 40, 21-((1R,4R,7R)-7-amino-2-azabicyclo[2.2.1]heptane-2-carbonyl)-19-methoxy-7,8,16,17-tetrahydro-6H-benzo[b]benzo[4,5]imidazo[1,2-h]pyrido[3′,2′:4,5]pyrrolo[2,1-j][1]oxa[4,8,11]triazacyclotetradecin-15(14H)-one]	30
COc1cc(C(=O)N2C[C@H]3CC[C@@H]2[C@@H]3N)cc2nc3n(c12)Cc1cccc(c1)CCCCCCn1c-3cc2cccnc21 [Example 42, ((1R,4R,7R)-7-amino-2-azabicyclo[2.2.1]heptan-2-yl)(27-methoxy-11H,21H-1,2(2,1)-dipyrrolo[2,3-b]pyridina-4(1,3)-benzenacyclodecaphane-25-yl)methanone]	49.7
COc1cc(C(=O)N2C[C@H]3CC[C@@H]2[C@@H]3N)cc2nc3n(c12)Cc1cccc(c1)[C@@H]1CN(C)C[C@@H]1CCCCn1c-3cc2cccnc21 [Example 43, ((1R,4R,7R)-7-amino-2-azabicyclo[2.2.1]heptan-2-yl)((5^3R,5^4R)-2^7-methoxy-5′-methyl-1′H,2^1H-1,2(2,1)-dipyrrolo[2,3-b]pyridina-5(3,4)-pyrrolidina-4(1,3)-benzenacyclononaphane-2^5-yl)methanone]	153
COc1cc(C(=O)N2C[C@H]3CC[C@@H]2[C@@H]3N)cc2nc3n(c12)Cc1cccc(c1)C1[C@@H](CCCCn2c-3cc3cccnc32)C1(F)F (stereo partly drawn) [Example 44, ((1R,4R,7R)-7-amino-2-azabicyclo[2.2.1]heptan-2-yl)((5^1S,5^2R)-5^3,5^3-difluoro-2^7-methoxy-1H,2^1H-1,2(2,1)-dipyrrolo[2,3-b]pyridina-4(1,3)-benzena-5(1,2)-cyclopropanacyclononaphane-2^5-yl)methanone]	216
COc1cc(C(=O)N2C[C@H](N)C[C@@H](F)C2)cc2nc3n(c12)Cc1cccc(c1)/C=C\CCCCn1c-3cc2cccnc21 [Example 51, ((3R,5R)-3-amino-5-fluoropiperidin-1-yl)((Z)-2^7-methoxy-1^1H,2^1H-1,2(2,1)-dipyrrolo[2,3-b]pyridina-4(1,3)-benzenacyclodecaphan-5-en-2^5-yl)methanone]	119
COc1cc(C(=O)N2C[C@H](N)C[C@@H](F)C2)cc2nc3n(c12)Cc1cncc(c1)-c1ccccc1CCCCn1c-3cc2ccc(C(C)(C)O)nc21 [Example 52, ((3R,5R)-3-Amino-5-fluoropiperidin-1-yl)(1^6-(2-hydroxypropan-2-yl)-2^7-methoxy-1^1H,2^1H-1,2(2,1)-dipyrrolo[2,3-b]pyridina-4(3,5)-pyridina-5(1,2)-benzenacyclononaphane-2^5-yl)methanone]	8
